Experiments:
[1] = test system: adipose tissue-derived MSCs (AMSCs); assay: Osteogenic differentiation of AMSCs (alkaline phosphatase activity, mineralization, osteogenic polypeptide expression); assay type: cell-based, human; details: throughout the cell culture time-course
Text: (§1) The effect of CytoD on adipose tissue-derived MSCs (AMSCs) was investigated. AMSCs offer several advantages over other sources of MSCs, particularly in the ease of tissue harvest, isolation and expansion to generate sufficient cell numbers for therapy. Because AMSCs have limited osteogenic potential, it is necessary to design molecular strategies to improve their ability to attain a mature osteoblastic phenotype. […] Furthermore, CytoD decreased protein levels of Enhancer of Zeste Homolog 2 (EZH2), an epigenetic suppressor of osteogenic differentiation that mediates heterochromatinization of bone-related genes by trimethylation of histone 3 lysine 27 (H3K27me3).

BMSCs = assay: RNA-seq analysis of BMSCs in response to CytoD; assay type: cell-based; details: 24 hour
[2] = test system: Enhancer of Zeste Homolog 2 (EZH2); assay: EZH2 protein levels and H3K27me3 marks in AMSCs; assay type: cell-based, human
Text: as §1

AMSCs = assay: RNA-seq analysis of AMSCs in response to CytoD; assay type: cell-based, human; details: 24 hour
Text: as §1

[3] = test system: estrogen-depleted (ovariectomized) mice; assay: Osteo-protective effect of EZH2 inactivation in estrogen-depleted (ovariectomized) mice; assay type: in vivo
Text: (§2) Bone stimulatory therapeutics that promote bone formation include bone morphogenetic proteins (e.g., BMP2) and intermittent treatment with parathyroid hormone (PTH) or PTH related protein, as well as antibody-suppression of WNT inhibitors (e.g., SOST). Furthermore, inactivation of EZH2, an epigenetic regulator with histone 3 lysine 27 (H3K27) methyltransferase activity, using a pharmacological inhibitor (GSK126) is bone anabolic in skeletally mature mice and osteo-protective in estrogen-depleted (ovariectomized) mice. These biological effects are directly related to the ability of EZH2 inhibition to promote osteogenic differentiation and inhibit adipogenic differentiation of mesenchymal stem cells.

MC3T3 cells = assay: mRNAseq gene expression in differentiating MC3T3 cells / preosteoblasts; assay type: cell-based
Experimental: The molecular mechanisms by which EZH2 inhibition promotes osteogenic differentiation were assessed. […] This quiescent state is conducive for expression of bone-related extracellular matrix proteins (e.g., collagens) that support matrix mineralization. […] Several Wnt ligands (e.g., Wnt10b, Wnt10a, and Wnt6) are robustly expressed in differentiating MC3T3 cells.

skeletally mature mice = assay: Bone anabolic effect of EZH2 inactivation in skeletally mature mice; assay type: in vivo
Text: as §2

C=C1[C@@H](C)[C@H]2[C@H](Cc3ccccc3)NC(=O)[C@]23[C@H](OC(C)=O)/C=C/[C@@](C)(O)C(=O)[C@@H](C)C/C=C/[C@H]3[C@@H]1O [CytoD, cytochalasin D]
alkaline phosphatase activity [1]: significant increases
expression of osteogenic polypeptides RUNX2, ALP, OPG and TGFβ3 [1]: significant increases
mineralization [1]: significant increases
program of other osteogenic markers, including those linked to the BMP2-RUNX2 axis (e.g., SP7) (BMSCs): significant upregulation
levels of H3K27me3 marks [2]: decreased levels
protein levels of EZH2 [2]: decreased
program of other osteogenic markers, including those linked to the BMP2-RUNX2 axis (e.g., SP7) (AMSCs): significant upregulation

CC[C@H](C)n1cc(C)c2c(C(=O)NCc3c(C)cc(C)[nH]c3=O)cc(-c3ccc(N4CCNCC4)nc3)cc21 [GSK126]
effect on bone [3]: osteo-protective
expression of pro-osteogenic Wnt10b (MC3T3 cells; differentiating MC3T3 cells, EZH2 inhibition): greatly up-regulated
expression of the PTH receptor (Pthr1h) (MC3T3 cells; preosteoblasts): enhanced
effect on bone (skeletally mature mice): bone anabolic

— patent US20220125853A1, “MATERIALS AND METHODS FOR ENHANCING BONE CELL DIFFERENTIATION” (Mayo Foundation for Medical Education and Research, priority 2016, published 2022)
